The source of these data is patent US12667566B2, “Combination therapy of GPR119 agonists and DPP-4 inhibitors” (MANKIND PHARMA LTD., priority 2019, dated 2026).

SMILES strings stand for the structures.

In one assay the test system is active GLP-1. The assay can be described thus: Active GLP-1 estimation. The format is in vivo. The conditions noted are these: male Sprague Dawley rats, oral. The protocol:
FIG. 2. Effect of GPR119 agonist Formula 1A on active GLP-1 levels in male Sprague Dawley rats. Formula 1A was administered to the rats and GLP-1 levels were estimated at different time points (0, 5, 15, 30 & 60 min) and compared to vehicle group. Data was analysed by One-Way ANOVA followed by Dunnett's Multiple Comparison Test. *P<0.05, **P<0.01, ***P<0.001 vs vehicle control. Vehicle used was 0.5% Tween 80 and 99.5% NaCMC in water (0.5% w/v).
GLP-1 estimation is conducted in male Sprague dawley rats. Animals of 8-10 weeks old were kept for overnight fasting (only water was provided ad libitum). […] were randomized based on basal glucose values into four different groups. Vehicle (0.5% Tween 80 and 99.5% NaCMC in water (0.5% w/v) was administered to control animals and remaining groups were administered with test compound prepared in vehicle at respective doses orally.
For active GLP-1 estimation, blood was collected by retro orbital puncture under isoflurane anesthesia. Active GLP-1 levels were estimated from the collected plasma at −30, 0, 5, 15, 30 & 60 min time points. Blood collection (Approximately 400-500 μl) was done by retro orbital puncture under isoflurane anesthesia with the help of DPP-4 inhibitor (#DPP4-010, Merck-Millipore) rinsed capillaries and collected into pre-coated Eppendorf (10 μl/ml of blood) with DPP-4 inhibitor.

For the next assay, the system named is blood glucose. The assay is described as follows: Oral glucose tolerance test (OGTT). The format is in vivo. The conditions noted are these: male Sprague Dawley rats, glucose load 2 g/kg. As for the experimental part: FIG. 1. Oral glucose tolerance test (OGTT) of GPR119 agonist Formula 1A in male Sprague Dawley rats. Formula 1A was administered to the rats and blood glucose was monitored post 30 min of dose administration (0-time point). After glucose administration (2 g/kg/10 ml), glucose levels were estimated at different time points (5, 15, 30, 60 & 120 min) and compared to vehicle group. Data was analysed by One-Way ANOVA followed by Dunnett's Multiple Comparison Test. *P<0.05, **P<0.01 & ***P<0.001 vs vehicle control. Vehicle used was 0.5% Tween 80 and 99.5% NaCMC in water (0.5% w/v).
OGTT study is conducted in male Sprague dawley rats. […] Vehicle (0.5% Tween 80 and 99.5% NaCMC in water (0.5% w/v) was administered to control animals and remaining groups were administered with test compound prepared in vehicle at respective doses orally. Blood samples were collected immediately after test compound administration (which was −30 min time point). Blood glucose was monitored post 30 min of dose administration (which was a zero min time point). All animals received 2 g/kg/10 ml (20%) of Glucose solution orally. After glucose administration, glucose levels were estimated at different time points (5, 15, 30, 60 & 120 min). Estimation of blood glucose level was done by strip method. […] Blood glucose AUC was calculated from the samples collected at respective time points. […]

Regarding `CCc1cnc(N2CCC([C@H](C)Oc3nn4cc(-c5ccc(S(C)(=O)=O)cc5F)nc4s3)CC2)nc1` [Formula IA], in the assay on active GLP-1 (10 mg/kg/wt), the “increase in active GLP-1 secretion compared to vehicle” value is recorded as 123%. Further, in the assay on blood glucose (10 mg/kg), the “glucose reduction compared to vehicle” value was 16%.

Take `N[C@@H](CC(=O)N1CCn2c(nnc2C(F)(F)F)C1)Cc1cc(F)c(F)cc1F` [sitagliptin, (3R)-3-amino-1-[3-(trifluoromethyl)-5,6,7,8-tetrahydro-5H-[1,2,4]triazolo-[4,3-a]pyrazin-7-yl]-4-(2,4,5-trifluorophenyl) butan-1-one]: in the assay with active GLP-1 (3 mg/kg/wt), the “increase in active GLP-1 secretion compared to vehicle” value is listed as 253%. Moreover, the “glucose reduction compared to vehicle” value in the assay on blood glucose (3 mg/kg) is recorded as 15%.
